≈ marks a conversion by molar mass, not a printed value.
Experiments:
E. coli (APH(3′)Ia) = test: MIC 50, broth micro-dilution, E. coli expressing APH(3′)Ia; format: cell-based, Escherichia coli; settings: Escherichia coli, ATCC25922, ATCC25922 harboring plasmid encoding APH(3′)Ia
Procedure: (§1) Plasmid transformation. Approximately 500 ng of the pET-9b(+) (Cat. No. 69432-3, Merck), pAT21-1 (provided by Prof. Dr. Patrice Courvalin, M.D., Pasteur Institute, France; prepared according to Trieu-Cuot et. al, Mol. Gen. Genet. 198(2), 348 (1985)), pBluescript::AAC(6′)-Ie/APH(2″)-Ia (provided by Prof. Dr. Sergei Vakulenko, M.D., University of Notre Dame, Ind., USA; prepared according to S. B. Vakulenko et. al., J. Biol. Chem. 287 (52), 43262 (2012)), pBlue_lpp_aacC3_rrnC and pSET152 (Cat. No. PVT3395, Life Science Market; prepared according to Bierman et al., Gene 116 (1), 43 (1992)) plasmids, encoding APH(3′)-Ia (SEQ ID NO:2), APH(3′)-IIIa (SEQ ID NO:3), AAC(6′)Ie-APH(2″)-Ia (SEQ ID NO:4), AAC(3)-III (SEQ ID NO:1), and AAC(3)-IV (SEQ ID NO:5) respectively, were individually incubated in a vial of competent cells for 15 min on ice. The cells were subsequently heated to 42° C. for 90 s, and cooled on ice for 1 min. After addition of 900 μL LB, the cells were incubated for 1 h at 37° C. and 200 rpm. Cells were plated on LB-agar supplemented with 50 μg/mL KanaA and incubated for 18 h at 37° C. The next day, a single colony was inoculated in 5 mL LB supplemented with 50 μg/mL and grown for 18 h at 37° C. and 200 rpm. A 200 μL sample of each culture was diluted with 200 μL of 40% v/v glycerol in water, and stored at −80° C. The plasmid was purified from the remaining culture using the Plasmid Miniprep kit. Plasmid DNA was investigated by Eurofins Genomics (Germany) to confirm the identity of the aminoglycoside resistance genes.
(§2) 3.1 Against E. coli Strains
(§3) Tested reference compounds. Amikacin sulfate (Cat. No. 01693, Chem-Impex), Gentamicin sulfate (Cat. No. G4918, Sigma Aldrich).
(§4) Microbial strains. E. coli ATCC 25922, E. coli ATCC 25922/pET-9b(+), E. coli ATCC 25922/pAT21-1, E. coli ATCC 25922/pBluescript::AAC(6′)-Ie/APH(2″)-Ia, E. coli ATCC 25922/pBlue_lpp_aacC3_rrnC, E. coli ATCC 25922/pSET152.
(§5) Culture media and equipment. BBL™ Mueller Hinton Broth 2 (Lot. BCBW1143, Cat. No. 70192, Sigma); Kanamycin A (Cat. No. A1493, AppliChem); 96-well deep well plate, 1 mL (Cat. No. 0030506.200, Eppendorf); Plate lids (Cat. No. 0030131.525, Eppendorf); 96-well plate, F-bottom (Cat. No. 781602, Brand; Incubator, Infors Multitron Pro); Laminar flow (Heraeus KS12); UV/VIS meter (Eppendorf BioPhotometer Plus); Platereader (Tecan Sunrise).
(§6) Compound preparation. Compounds were prepared in MH2 media at a concentration of 5 mM and stored at 4° C. For testing, solutions of 128 μM were prepared in MH2. Out of these working solutions, 400 μL was transferred to wells in the first column of 96-well deep well plates. Each compound was transferred in triplicate. Plates were previously filled with 200 μL of MH2 media in all wells except for the wells in the first column. After compound and antibiotic addition, the compounds were serial two-fold diluted by transferring 200 μL from the first to the second column, then from the second to the third column and so on. Finally, 200 μL was removed from the last column.
(§7) Inoculum preparation. Microorganisms used were all revived from 20% glycerol (40% v/v glycerol in water was diluted with MH2) storage at −80° C. by inoculating them in 5 mL MH2. inoculums of E. coli containing a plasmid were selected for by adding 50 μg/mL KanaA. The Inoculums were grown to an optical density (measured by UV/Vis spectroscopy) of 0.6-0.8 at 600 nm. Out of these suspensions, actual inoculums were prepared by diluting them to an optical density (OD) of 0.1 in MH2 media. From these inoculums, 200 μL was transferred to each well, resulting in a final compound concentration range of 64 μM-31.3 nM. All plates were incubated at 900 rpm and 70% rH for 18 h at 37° C.
(§8) MIC determination. After 18 h of growth, 200 μL was transferred to a 96-well F-bottom plate. The optical density was determined by a plate reader at 600 nm, with 10 s shaking before reading. Triplicate measurements were averaged, and a growth curve was plotted in Microsoft Excel. […]

[1] = system: E. coli (AAC(6′)Ie-APH(2″)Ia); test: MIC 50, broth micro-dilution, E. coli expressing AAC(6′)Ie-APH(2″)Ia; format: cell-based, Escherichia coli; settings: Escherichia coli, ATCC25922, ATCC25922 harboring plasmid encoding AAC(6′)Ie-APH(2″)Ia
Procedure: as §1, §2, §3, §4, §5, §6, §7, §8

| Structure (SMILES) | MIC50 (E. coli (APH(3′)Ia)) [µM] | MIC50 [1] [µM] |
| --- | --- | --- |
| N=C(NCCCO)NC1[C@@H](O)C(OC2[C@@H](F)[C@H](O[C@H]3OC(CN)[C@@H](O)CC3N)C(N)C[C@H]2NC(=O)[C@@H](O)CCN)O[C@H](CO)[C@H]1O (some centres unmarked) [ABX5041, Tobra-AHB-F-Gua 3-hydroxy-propyl] | 1 (≈ 0.671 µg/mL) | 0.5 (≈ 0.335 µg/mL) |
| N=C(NC[C@H]1CCNC1)NC1[C@@H](O)C(OC2[C@@H](F)[C@H](O[C@H]3OC(CN)[C@@H](O)CC3N)C(N)C[C@H]2NC(=O)[C@@H](O)CCN)O[C@H](CO)[C@H]1O (stereo partly drawn) [ABX5042, Tobra-AHB-F-Gua (S) pyrrolidine-3-ylmethyl] | 0.25 (≈ 0.174 µg/mL) | 0.25 (≈ 0.174 µg/mL) |
| N=C(NC[C@H]1CNCCO1)NC1[C@@H](O)C(OC2[C@@H](F)[C@H](O[C@H]3OC(CN)[C@@H](O)CC3N)C(N)C[C@H]2NC(=O)[C@@H](O)CCN)O[C@H](CO)[C@H]1O (stereo partly drawn) [ABX5043, Tobra-AHB-F-Gua (R) morpholin-2-yl methyl] | 0.5 to 1 (≈ 0.356 to 0.712 µg/mL) | 0.25 (≈ 0.178 µg/mL) |
| N=C(N)NC1[C@@H](O)C(OC2[C@@H](F)[C@H](O[C@H]3OC(CNCCO)[C@@H](O)CC3N)C(N)C[C@H]2NC(=O)[C@@H](O)CCN)O[C@H](CO)[C@H]1O (some centres unmarked) [ABX5045, 6N-2-hydroxy-ethyl-Tobra-AHB-F-Gua] | 1 (≈ 0.657 µg/mL) | 0.5 (≈ 0.328 µg/mL) |
| N=C(NCC1CCCO1)NC1[C@@H](O)C(OC2[C@@H](F)[C@H](O[C@H]3OC(CN)[C@@H](O)CC3N)C(N)C[C@H]2NC(=O)[C@@H](O)CCN)O[C@H](CO)[C@H]1O (some centres unmarked) [ABX5046, Tobra-AHB-F-Gua tetrahydrofuran-2-yl methyl] | 1 (≈ 0.697 µg/mL) | 0.5 (≈ 0.348 µg/mL) |
| C[C@@H](N)CCNC(=N)NC1[C@@H](O)C(OC2[C@@H](F)[C@H](O[C@H]3OC(CN)[C@@H](O)CC3N)C(N)C[C@H]2NC(=O)[C@@H](O)CCN)O[C@H](CO)[C@H]1O (stereo partly drawn) [ABX5047, Tobra-AHB-F-Gua (R) 3-amino-butyl] | 0.5 (≈ 0.342 µg/mL) | 0.25 (≈ 0.171 µg/mL) |
| N=C(NCc1ccncc1)NC1[C@@H](O)C(OC2[C@@H](F)[C@H](O[C@H]3OC(CN)[C@@H](O)CC3N)C(N)C[C@H]2NC(=O)[C@@H](O)CCN)O[C@H](CO)[C@H]1O (some centres unmarked) [ABX5048, Tobra-AHB-F-Gua pyridin-4-yl methyl] | 1 (≈ 0.704 µg/mL) | 0.5 (≈ 0.352 µg/mL) |
| N=C(NCc1cnc[nH]1)NC1[C@@H](O)C(OC2[C@@H](F)[C@H](O[C@H]3OC(CN)[C@@H](O)CC3N)C(N)C[C@H]2NC(=O)[C@@H](O)CCN)O[C@H](CO)[C@H]1O (some centres unmarked) [ABX5050, Tobra-AHB-F-Gua imidazol-5-yl methyl] | 2 (≈ 1.39 µg/mL) | 1 (≈ 0.693 µg/mL) |
| N=C(NCC1CCOC1)NC1[C@@H](O)C(OC2[C@@H](F)[C@H](O[C@H]3OC(CN)[C@@H](O)CC3N)C(N)C[C@H]2NC(=O)[C@@H](O)CCN)O[C@H](CO)[C@H]1O (some centres unmarked) [ABX5051, Tobra-AHB-F-Gua tetrahydrofuran-3-yl methyl] | 1 (≈ 0.697 µg/mL) | 0.5 (≈ 0.348 µg/mL) |
| NCC[C@H](O)C(=O)N[C@@H]1C[C@H](N)[C@@H](O[C@H]2O[C@H](CN)[C@@H](O)[C@H](O)[C@H]2O)[C@H](O)[C@H]1O[C@H]1O[C@H](CO)[C@@H](O)[C@H](N)[C@H]1O [Amikacin, amikacin, reference compound] | 8 (≈ 4.68 µg/mL) | 4 to 8 (≈ 2.34 to 4.68 µg/mL) |

— patent US20220127297A1, “Novel Antibacterial 3"-Derivatives Of 4,6-Disubstituted 2,5-Dideoxystreptamine Aminoglycoside Antibiotics” (AGILeBiotics B.V., priority 2018, published 2022)
